Source: patent US20200131144A1, “AMINE OR (THIO)AMIDE CONTAINING LXR MODULATORS” (Phenex-FXR GmbH, priority 2017, published 2020)
Where two headings read alike, the source gives them in different places.

Experiments:
LXRβ full length (FL) = target: T1, LXRβ full length (FL) (Homo sapiens, UniProt P55055, INS174Q); test: LXR Gal4 reporter transient transfection assay, mammalian two-hybrid, FL-M2H Gal4β; type: cell-based; details: HEK293 cells; inverse agonist unless *
T1 construct: the full length (FL) proteins of LXRα (amino acids 1-447); NP005684; NP009052; expressed in transfected cells; host or cells: HEK293
T1 sequence (P55055 with tags, fused parts or gaps INS174Q): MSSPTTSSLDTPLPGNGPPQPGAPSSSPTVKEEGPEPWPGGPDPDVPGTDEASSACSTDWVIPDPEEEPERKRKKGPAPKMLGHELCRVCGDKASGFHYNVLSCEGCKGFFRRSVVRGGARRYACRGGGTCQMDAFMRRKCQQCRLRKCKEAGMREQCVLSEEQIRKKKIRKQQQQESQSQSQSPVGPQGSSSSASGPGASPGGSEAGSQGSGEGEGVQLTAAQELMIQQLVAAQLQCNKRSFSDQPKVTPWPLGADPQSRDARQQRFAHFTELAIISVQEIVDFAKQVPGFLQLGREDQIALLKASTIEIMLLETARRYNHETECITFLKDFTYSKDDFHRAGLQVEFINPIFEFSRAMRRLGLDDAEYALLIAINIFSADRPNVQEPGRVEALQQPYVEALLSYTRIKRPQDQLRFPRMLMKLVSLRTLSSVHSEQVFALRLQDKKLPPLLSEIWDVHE
In short: (§1)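 HEK293 cells transiently cotransfected with NFkB-AD fusions of full-length or LBD LXRα/β, GAL4-DBD fusions of SRC1 coactivator or NCoR corepressor domains, GAL4-driven firefly luciferase and Renilla control. Compound added 4 h post-transfection (≤0.2% DMSO), 16 h incubation; firefly and Renilla luminescence read sequentially.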

LXRα full length (FL) = target: T2, LXRα full length (FL) (Homo sapiens, UniProt Q13133); test: LXR Gal4 reporter transient transfection assay, mammalian two-hybrid, FL-M2H Gal4α; type: cell-based; details: HEK293 cells; inverse agonist unless *
T2 construct: the full length (FL) proteins of LXRα (amino acids 1-447); NP005684; expressed in transfected cells; host or cells: HEK293
T2 sequence (Q13133 1-447): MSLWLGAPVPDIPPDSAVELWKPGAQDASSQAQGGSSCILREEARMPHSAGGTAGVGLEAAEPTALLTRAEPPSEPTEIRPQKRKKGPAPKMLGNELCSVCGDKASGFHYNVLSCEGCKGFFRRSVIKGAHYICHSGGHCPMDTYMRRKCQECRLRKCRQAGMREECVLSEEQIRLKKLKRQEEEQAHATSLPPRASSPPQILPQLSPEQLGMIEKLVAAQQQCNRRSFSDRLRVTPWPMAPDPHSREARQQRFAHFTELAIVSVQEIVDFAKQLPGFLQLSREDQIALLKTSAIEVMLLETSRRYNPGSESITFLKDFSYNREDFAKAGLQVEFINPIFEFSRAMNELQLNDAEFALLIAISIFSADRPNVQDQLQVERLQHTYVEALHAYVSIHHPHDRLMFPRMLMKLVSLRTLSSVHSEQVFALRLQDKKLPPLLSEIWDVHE
In short: as §1

[1] = Short term HFD mouse model: liver and plasma exposure after multiple oral dosing; type: in vivo, mice (C57BL/6J); details: C57BL/6J, HFD mice, 4 h after final dose; for Kp at 4 h: liver/plasma, read-out: liver/plasma ratio, 4 h
Text: Short Term HFD Mouse Model:
For this, C57BL/6J were purchased from Elevage Janvier (Rennes, France) at the age of 8 weeks. After an acclimation period of two weeks, animals were prefed on a high fat diet (HFD) (Ssniff Spezialdiäten GmbH, Germany, Surwit EF D12330 mod, Cat. No. E15771-34), with 60 kcal % from fat plus 1% (w/w) extra cholesterol (Sigma-Aldrich, St. Louis, Mo.) for 5 days. Animals were maintained on this diet during treatment with LXR modulators. The test compounds were formulated in 0.5% hydroxypropylmethylcellulose (HPMC) and administered in three doses (from 1.5 to 20 mg/kg each) by oral gavage according to the following schedule: on day one, animals received treatment in the morning and the evening (ca. 17:00), on day two animals received the final treatment in the morning after a 4 h fast and were sacrificed 4 h thereafter. Animal work was conducted according to the national guidelines for animal care in Germany.
Multiple oral dosing of compounds from the present invention in mice lead to a high liver exposure with a favourable liver to plasma ratio. […] These genes are related to hepatic de-novo lipogenesis. A suppression of these genes will reduce liver fat (liver triglycerides).

[2] = liver, three oral doses of 10 mg/kg each, read-out: liver exposure, 4 h
[3] = three oral doses of 10 mg/kg each
[4] = plasma, three oral doses of 10 mg/kg each, read-out: plasma exposure, 4 h
[5] = liver, three oral doses of 20 mg/kg each, read-out: liver exposure, 4 h
[6] = three oral doses of 20 mg/kg each
[7] = plasma, three oral doses of 20 mg/kg each, read-out: plasma exposure, 4 h
[8] = liver, three oral doses of 1.5 mg/kg each, read-out: liver exposure, 4 h
[9] = three oral doses of 1.5 mg/kg each
[10] = plasma, three oral doses of 1.5 mg/kg each, read-out: plasma exposure, 4 h

Cc1cc(C)c(C(=O)N(Cc2ccc(-c3cccc(C(C)(C)C(=O)O)c3)cc2)Cc2ccc(C(F)(F)F)o2)c(C)c1 [10/1]
EC50 (LXRβ full length (FL)): < 100 nM | EC50 (LXRα full length (FL)): < 100 nM

Cc1ccc2ccccc2c1C(=O)N(Cc1ccc(-c2cccc([C@@H](C)C(=O)O)c2)cc1)Cc1ccc(C(F)(F)F)o1 [10/5]
EC50 (LXRβ full length (FL)): < 100 nM | concentration at 4 h [1, 2]: 24.9 µM | Kp at 4 h [1, 3]: 7.9 | concentration at 4 h [1, 4]: 3.16 µM | EC50 (LXRα full length (FL)): < 100 nM

Cc1ccc2ccccc2c1C(=O)N(Cc1ccc(-c2cc(F)c(CO)c(S(=O)(=O)CC(=O)O)c2)cc1)Cc1ccc(C(F)(F)F)o1 [22/8]
concentration at 4 h [1, 5]: 2.82 µM | Kp at 4 h [1, 6]: 55.7 | concentration at 4 h [1, 7]: 0.051 µM

Cc1ccc2ccccc2c1C(=O)N(Cc1ccc(C(F)(F)F)o1)Cc1ccc(-c2cccc(C(C)(C)C(=O)O)c2)cc1C#N [27/7]
EC50 (LXRβ full length (FL)): < 100 nM | concentration at 4 h [1, 5]: 14.8 µM | Kp at 4 h [1, 6]: 52.5 | concentration at 4 h [1, 7]: 0.281 µM | EC50 (LXRα full length (FL)): < 100 nM

Cc1ccc2ccccc2c1C(=O)N(Cc1ccc(-c2cccc(C(C)(O)C(=O)O)c2)cc1)Cc1ccc(C(F)(F)F)o1 (centres unmarked) [27/10]
EC50 (LXRβ full length (FL)): < 100 nM | concentration at 4 h ([1]; liver, three oral doses of 3 mg/kg each, read-out: liver exposure, 4 h): 9.93 µM | concentration at 4 h [1, 2]: 43.3 µM | Kp at 4 h ([1]; three oral doses of 3 mg/kg each): 211 | Kp at 4 h [1, 3]: 30 | concentration at 4 h ([1]; plasma, three oral doses of 3 mg/kg each, read-out: plasma exposure, 4 h): 0.047 µM | concentration at 4 h [1, 4]: 1.44 µM | EC50 (LXRα full length (FL)): < 100 nM

COc1ccc2c(c1CN(Cc1ccc(-c3cccc(C(C)(C)C(=O)O)c3)cc1)Cc1ccc(C(F)(F)F)o1)CCCC2 [27/17]
EC50 (LXRβ full length (FL)): < 100 nM | concentration at 4 h [1, 2]: 6.8 µM | Kp at 4 h [1, 3]: 2.3 | concentration at 4 h [1, 4]: 2.92 µM | EC50 (LXRα full length (FL)): < 100 nM

Cc1ccc2ccccc2c1C(=O)N(Cc1ccc(-c2cccc(C(C)(C)C(=O)O)c2)cc1)Cc1ccc(C(F)(F)F)o1 [27/26]
EC50 (LXRβ full length (FL)): < 100 nM | concentration at 4 h [1, 8]: 6.73 µM | concentration at 4 h [1, 5]: 44.6 µM | Kp at 4 h [1, 9]: 6.5 | Kp at 4 h [1, 6]: 2.9 | concentration at 4 h [1, 10]: 1.04 µM | concentration at 4 h [1, 7]: 15.3 µM | EC50 (LXRα full length (FL)): < 100 nM

CCOC(=O)c1ccc(CN(Cc2ccc(-c3cccc(C(C)(C)C(=O)O)c3)cc2)C(=O)c2c(C)ccc3ccccc23)o1 [27/28]
EC50 (LXRβ full length (FL)): < 100 nM | concentration at 4 h [1, 8]: 4.3 µM | concentration at 4 h [1, 5]: 13.8 µM | Kp at 4 h [1, 9]: 600 | Kp at 4 h [1, 6]: 1790 | concentration at 4 h [1, 10]: 0.007 µM | concentration at 4 h [1, 7]: 0.008 µM | EC50 (LXRα full length (FL)): < 100 nM

Cc1ccc2ccccc2c1C(=O)N(Cc1ccc(-c2cccc(C(C)(C)C(=O)O)c2)cc1)Cc1ccc(C(F)F)o1 [27/36]
EC50 (LXRβ full length (FL)): < 100 nM | concentration at 4 h [1, 2]: 80.2 µM | Kp at 4 h [1, 3]: 26.6 | concentration at 4 h [1, 4]: 3.02 µM | EC50 (LXRα full length (FL)): < 100 nM

Cc1ccc2ccccc2c1C(=O)N(Cc1ccc(-c2cccc(C(C)(C)C(=O)O)c2)cc1)Cc1ccc(C#N)o1 [27/38]
EC50 (LXRβ full length (FL)): < 100 nM | concentration at 4 h [1, 5]: 37.5 µM | Kp at 4 h [1, 6]: 15.8 | concentration at 4 h [1, 7]: 2.37 µM | EC50 (LXRα full length (FL)): 100 to 1000 nM

CCc1nc2ccccc2c(C(=O)N(Cc2ccc(-c3cccc(C(C)(C)C(=O)O)c3)cc2)Cc2ccc(C(F)(F)F)o2)c1C [27/43]
EC50 (LXRβ full length (FL)): < 100 nM | concentration at 4 h [1, 5]: 44.3 µM | Kp at 4 h [1, 6]: 32.5 | concentration at 4 h [1, 7]: 1.36 µM | EC50 (LXRα full length (FL)): < 100 nM

COc1ccc2c(c1C(=O)N(Cc1ccc(-c3cccc(C(C)(C)C(=O)O)c3)cc1)Cc1ccc(C(F)(F)F)o1)CCCC2 [27/45]
EC50 (LXRβ full length (FL)): < 100 nM | concentration at 4 h [1, 2]: 320 µM | Kp at 4 h [1, 3]: 367 | concentration at 4 h [1, 4]: 0.871 µM | EC50 (LXRα full length (FL)): < 100 nM

CC(C)(C(=O)O)c1cccc(-c2ccc(CN(Cc3ccc(C(F)(F)F)o3)C(=O)c3c4ccccc4cc4ccccc34)cc2)c1 [27/47]
EC50 (LXRβ full length (FL)): < 100 nM | concentration at 4 h [1, 5]: 38.4 µM | Kp at 4 h [1, 6]: 36 | concentration at 4 h [1, 7]: 1.07 µM | EC50 (LXRα full length (FL)): < 100 nM

COc1cc(-c2cccc(C(C)(C)C(=O)O)c2)ccc1CN(Cc1ccc(C(F)(F)F)o1)C(=O)c1c(C)ccc2ccccc12 [27/66]
EC50 (LXRβ full length (FL)): < 100 nM | concentration at 4 h [1, 2]: 75.3 µM | Kp at 4 h [1, 3]: 189 | concentration at 4 h [1, 4]: 0.399 µM | EC50 (LXRα full length (FL)): < 100 nM

Cc1ccc2ccccc2c1C(=O)N(Cc1ccc(-c2cc(F)cc(C3(C(=O)O)CC3)c2)cc1)Cc1ccc(C(F)(F)F)o1 [27/76]
EC50 (LXRβ full length (FL)): < 100 nM | concentration at 4 h [1, 2]: 37.9 µM | Kp at 4 h [1, 3]: 16.4 | concentration at 4 h [1, 4]: 2.31 µM | EC50 (LXRα full length (FL)): < 100 nM

Cc1ccc2ccccc2c1C(=O)N(Cc1ccc(C(F)(F)F)o1)Cc1ncc(-c2cccc(C(C)(C)C(=O)O)c2)cc1Cl [27/78]
EC50 (LXRβ full length (FL)): < 100 nM | concentration at 4 h [1, 2]: 18.4 µM | Kp at 4 h [1, 3]: 61.3 | concentration at 4 h [1, 4]: 0.3 µM | EC50 (LXRα full length (FL)): < 100 nM

Cc1nc2ccccc2c(C(=O)N(Cc2ccc(-c3cccc(C(C)(C)C(=O)O)c3)cc2)Cc2ccc(C(F)(F)F)o2)c1C [27/79]
EC50 (LXRβ full length (FL)): < 100 nM | concentration at 4 h [1, 2]: 36.5 µM | Kp at 4 h [1, 3]: 39.2 | concentration at 4 h [1, 4]: 0.931 µM | EC50 (LXRα full length (FL)): < 100 nM

Cc1ccc2ccccc2c1C(=O)N(Cc1ccc(-c2cccc(S(=O)(=O)CC(=O)O)c2)cc1)Cc1ccc(C(F)(F)F)o1 [Example 9]
concentration at 4 h [1, 5]: 18.2 µM | Kp at 4 h [1, 6]: 135 | concentration at 4 h [1, 7]: 0.134 µM
